Several values for one entry are separate records, joined by “and”; a condition that tells them apart may be missing. Identical values can stand only once.
Experiment: Radiolysis / stability of [18F]DCFPyL over time by HPLC with radiodetection (RCP, free 18F, radioactive impurities)
Format: physicochemical
Description: Those of ordinary skill in the art will be aware of techniques and systems for determining the radiochemical purity of a composition. In some cases, the radiochemical purity is determined using an HPLC associated with a radio-detector. Generally, the radiochemical purity is determined under ambient conditions (e.g., ambient temperature, ambient humidity, ambient light, etc.), such as in samples stored under such conditions.
Stability was assessed using reverse phase HPLC on a C18 column with a phosphate buffer/acetonitrile gradient mobile phase, and the elution profile was monitored using both UV and radiochemical detectors. Samples were analyzed either by direct injection onto the HPLC, dilution and injection or including the addition of tetraethylammonium fluoride (TEAF) into the sample before injection.
Known amounts of free ^18F either alone or spiked with TEAF were injected onto the analytic column and the eluent from the column collected over the course of a chromatogram and assaying the radioactivity using a Capintec. […] Adding TEAF into the analytic samples was incorporated into subsequent studies examining potential radiolysis of [^18F]DCFPyL to overcome some of the limitations of free ^18F quantification.
Analytical HPLC method was used. The method employs UV detection at 264 nm for chemical impurities, and an Eckert & Ziegler model B-FC-1000 gamma detector for radiochemical assays.

[1] = 110 mCi/mL in 50 mg/mL pH 5.8 ascorbic acid, T = 3.0 h
[2] = 110 mCi/mL in 50 mg/mL pH 5.8 ascorbic acid, T = 3.5 h
[3] = 110 mCi/mL in 50 mg/mL pH 5.8 ascorbic acid, T = 4.0 h
[4] = 147 mCi/mL in 0.9% Sodium Chloride, USP, no ascorbic acid, T = 0 h
[5] = 147 mCi/mL in 0.9% Sodium Chloride, USP, no ascorbic acid, T = 0.5 h
[6] = 147 mCi/mL in 0.9% Sodium Chloride, USP, no ascorbic acid, T = 1.0 h
[7] = 147 mCi/mL in 0.9% Sodium Chloride, USP, no ascorbic acid, T = 1.5 h
[8] = 147 mCi/mL in 0.9% Sodium Chloride, USP, no ascorbic acid, T = 2.0 h
[9] = 147 mCi/mL in 0.9% Sodium Chloride, USP, no ascorbic acid, T = 2.5 h
[10] = 147 mCi/mL in 0.9% Sodium Chloride, USP, no ascorbic acid, T = 3.0 h
[11] = 147 mCi/mL in 0.9% Sodium Chloride, USP, no ascorbic acid, T = 3.5 h
[12] = 147 mCi/mL in 0.9% Sodium Chloride, USP, no ascorbic acid, T = 4.0 h
[13] = T = 0/1, 50 mg/mL ascorbic acid pH 5.8, 20% ethanol, 106.5 mCi/mL at EOS
[14] = T = 0, 0.5 mg/mL ascorbic acid pH 5.8, 20% ethanol, 105.8 mCi/mL at EOS
[15] = T = 0, 1 mg/mL ascorbic acid pH 5.8, 20% ethanol, 107.0 mCi/mL at EOS
[16] = T = 0, 5 mg/mL ascorbic acid pH 5.8, 20% ethanol, 99.0 mCi/mL at EOS
[17] = T = 0, 20 mg/mL sodium citrate, 20% ethanol, 104.8 mCi/mL at EOS, MPA = 0.25% of main peak
[18] = T = 0, 50 mg/mL ascorbic acid pH 5.8, 20% ethanol, 139.7 mCi/mL at EOS
[19] = T = 0 hr, 50 mg/mL ascorbic acid pH 5.8 in final product vial, 20% ethanol, 110 mCi/mL at EOS
[20] = T = 0 hr, 100 mg/mL ascorbic acid pH 2.0, 256 mCi/mL at EOS
[21] = T = 0 hr, 20% ethanol in saline, 52 mCi/mL at EOS
[22] = T = 0 hr, 20% ethanol in saline, 65 mCi/mL at EOS
[23] = T = 0 hr, 20% ethanol in saline, 85 mCi/mL at EOS
[24] = T = 0 hr, 100% ethanol, 325 mCi/mL at EOS
[25] = T = 0 hr, control without ascorbic acid, 36% ethanol in saline, 147 mCi/mL at EOS
[26] = T = 3, 50 mg/mL ascorbic acid pH 5.8, 20% ethanol, 106.5 mCi/mL at EOS
[27] = T = 4, 50 mg/mL ascorbic acid pH 5.8, 20% ethanol, 106.5 mCi/mL at EOS
[28] = T = 6, 50 mg/mL ascorbic acid pH 5.8, 20% ethanol, 106.5 mCi/mL at EOS

SMILES: O=C(O)CC[C@H](NC(=O)N[C@@H](CCCCNC(=O)c1ccc([18F])nc1)C(=O)O)C(=O)O [Lot 18F-DCFPyL, 2-(3-{1-carboxy-5-[(6-[18F]fluoro-pyridine-3-carbonyl)-amino]-pentyl}ureido)-pentanedioic acid]
- free 18F accumulating over 4 hrs (50 mg/mL ascorbic acid pH 5.8, 20% ethanol, 111 mCi/mL at EOS): 0.26%
- free 18F accumulating over 4 hrs (100 mg/mL ascorbic acid pH 2.0, 256 mCi/mL at EOS): 0.08%
- 18F-DCFPyL (110 mCi/mL in 50 mg/mL pH 5.8 ascorbic acid, T = 0 h): 99.73 area %
- 18F-DCFPyL (110 mCi/mL in 50 mg/mL pH 5.8 ascorbic acid, T = 0.5 h): 99.72 area %
- 18F-DCFPyL (110 mCi/mL in 50 mg/mL pH 5.8 ascorbic acid, T = 1.0 h): 96.74 area %
- 18F-DCFPyL (110 mCi/mL in 50 mg/mL pH 5.8 ascorbic acid, T = 1.5 h): 99.66 area %
- 18F-DCFPyL (110 mCi/mL in 50 mg/mL pH 5.8 ascorbic acid, T = 2.0 h): 99.76 area %
- 18F-DCFPyL (110 mCi/mL in 50 mg/mL pH 5.8 ascorbic acid, T = 2.5 h): 99.66 area %
- 18F-DCFPyL [1]: 99.30 area %
- Free 18F [1]: 0.35 area %
- 18F-DCFPyL [2]: 99.46 area %
- Free 18F [2]: 0.24 area %
- 18F-DCFPyL [3]: 99.43 area %
- Free 18F [3]: 0.26 area %
- 18F-DCFPyL [4]: 94.17 area %
- Free 18F [4]: 4.68 area %
- 18F-DCFPyL [5]: 90.65 area %
- Free 18F [5]: 7.73 area %
- 18F-DCFPyL [6]: 90.71 area %
- Free 18F [6]: 7.69 area %
- 18F-DCFPyL [7]: 89.59 area %
- Free 18F [7]: 8.78 area %
- 18F-DCFPyL [8]: 89.50 area %
- Free 18F [8]: 8.67 area %
- 18F-DCFPyL [9]: 88.79 area %
- Free 18F [9]: 9.66 area %
- 18F-DCFPyL [10]: 88.94 area %
- Free 18F [10]: 9.49 area %
- 18F-DCFPyL [11]: 88.90 area %
- Free 18F [11]: 9.56 area %
- 18F-DCFPyL [12]: 89.06 area %
- Free 18F [12]: 9.27 area %
- Free 18F (256 mCi/mL in ethanol, ascorbic acid in process, T = 0 h): 0.29 area %
- Free 18F (256 mCi/mL in ethanol, ascorbic acid in process, T = 0.5 h): 0.40 area %
- Free 18F (256 mCi/mL in ethanol, ascorbic acid in process, T = 1.0 h): 0.31 area %
- Free 18F (256 mCi/mL in ethanol, ascorbic acid in process, T = 1.5 h): 0.31 area %
- Free 18F (256 mCi/mL in ethanol, ascorbic acid in process, T = 2.0 h): 0.31 area %
- Free 18F (256 mCi/mL in ethanol, ascorbic acid in process, T = 2.5 h): 0.31 area %
- Free 18F (256 mCi/mL in ethanol, ascorbic acid in process, T = 3.0 h): 0.29 area %
- Free 18F (256 mCi/mL in ethanol, ascorbic acid in process, T = 3.5 h): 0.42 area %
- Free 18F (256 mCi/mL in ethanol, ascorbic acid in process, T = 4.0 h): 0.40 area %
- 18F-DCFPyL (256 mCi/mL in ethanol, 100 mg/mL pH 2.0 ascorbic acid in collection vial and HLB wash, T = 0 h): 99.71 area %
- 18F-DCFPyL (256 mCi/mL in ethanol, 100 mg/mL pH 2.0 ascorbic acid in collection vial and HLB wash, T = 0.5 h): 99.60 area %
- 18F-DCFPyL (256 mCi/mL in ethanol, 100 mg/mL pH 2.0 ascorbic acid in collection vial and HLB wash, T = 1.0 h): 98.68 area %
- 18F-DCFPyL (256 mCi/mL in ethanol, 100 mg/mL pH 2.0 ascorbic acid in collection vial and HLB wash, T = 1.5 h): 98.58 area %
- 18F-DCFPyL (256 mCi/mL in ethanol, 100 mg/mL pH 2.0 ascorbic acid in collection vial and HLB wash, T = 2.0 h): 98.20 area %
- 18F-DCFPyL (256 mCi/mL in ethanol, 100 mg/mL pH 2.0 ascorbic acid in collection vial and HLB wash, T = 2.5 h): 98.71 area %
- 18F-DCFPyL (256 mCi/mL in ethanol, 100 mg/mL pH 2.0 ascorbic acid in collection vial and HLB wash, T = 3.0 h): 98.46 area %
- 18F-DCFPyL (256 mCi/mL in ethanol, 100 mg/mL pH 2.0 ascorbic acid in collection vial and HLB wash, T = 3.5 h): 97.96 area %
- 18F-DCFPyL (256 mCi/mL in ethanol, 100 mg/mL pH 2.0 ascorbic acid in collection vial and HLB wash, T = 4.0 h): 97.95 area %
- RCP (4 hours, 5 mg/mL ascorbate pH 6 FPV prefill and 6 mg/mL pH 6 ascorbate as delivery solution): 98%
- RCP (4 hours, 10 mg/mL pH 6 ascorbate in collection vial and 5 mg/mL pH 6 ascorbic acid in final product vial): 99%
- % RCP (10 hours, 3.3 mg/mL ascorbic acid in FPV, 10 mg/mL pH 2 in collection vial): 97%
- RCP (10 hours, 5 mg/mL, pH 6 ascorbate in the final product): 96%
- % RCP (10 hours, 5.6 mg/mL ascorbic acid in FPV, 10 mg/mL pH 2 in collection vial): 98%
- % RCP (10 hours, 7.8 mg/mL ascorbic acid in FPV, 10 mg/mL pH 2 in collection vial): 97%
- RCP (10 hours, pH 2 ascorbate in collection vial, 5 mg/mL ascorbate pH 6 in FPV): 98%
- % RCP (10 hours, pH 4.5): 98%
- % RCP (10 hours, pH 5.5): 97%
- % RCP (10 hours, pH 7.0): 97%
- 18F-DCFPyL (% RCP) [13]: 100.00%
- Free F-18 [13]: 0.00%
- 18F-DCFPyL (% RCP) [14]: 100.00%
- Free F-18 [14]: 0.00%
- 18F-DCFPyL (% RCP) [15]: 99.68%
- Free F-18 [15]: 0.32%
- Free F-18 (T = 0, 1 mg/mL sodium ascorbate, 20% ethanol, 111.5 mCi/mL at EOS): 0.57%
- 18F-DCFPyL (% RCP) [16]: 100.00%
- Free F-18 [16]: 0.00%
- Free F-18 (T = 0, 20 mg/mL sodium citrate, 20% ethanol, 104.8 mCi/mL at EOS): 10.22%
- RT 3.4 radioactive impurity [17]: <MPA
- RT 3.7 radioactive impurity [17]: <MPA
- 18F-DCFPyL (% RCP) [18]: 100.00%
- Free F-18 [18]: 0.00%
- RT 4.8 radioactive impurity (T = 0, 50 mg/mL ascorbic acid pH 5.8, 20% ethanol, 139.7 mCi/mL at EOS, MPA = 0.25% of main peak): <MPA
- 18F-DCFPyL (RCP) [19]: 99.7% and 99.73%
- Free 18F [19]: < LLQ
- RT 5.0 radioactive impurity [19]: 0.27%
- 18F-DCFPyL (RCP) (T = 0 hr, 50 mg/mL ascorbic acid pH 5.8 in final product vial, 20% ethanol, 110 mCi/mL at EOS, listed as [^18F]DCFPYL): 99.7%
- 18F-DCFPyL (RCP) [20]: 99.7% and 99.71%
- Free 18F [20]: 0.29%
- 18F-DCFPyL (RCP) (T = 0 hr, 100 mg/mL ascorbic acid pH 2.0, 256 mCi/mL at EOS, listed as [^18F]DCFPYL): 99.7%
- 18F-DCFPyL (RCP) [21]: 99.31%
- Free F-18 [21]: 0.23%
- RT 5.0 radioactive impurity [21]: 0.46%
- 18F-DCFPyL (RCP) [22]: 98.75%
- Free F-18 [22]: 0.91%
- RT 5.0 radioactive impurity [22]: 0.34%
- 18F-DCFPyL (RCP) [23]: 97.56%
- Free F-18 [23]: 2.10%
- RT 5.0 radioactive impurity [23]: 0.34%
- 18F-DCFPyL (RCP) [24]: 98.37%
- Free F-18 [24]: 1.63%
- 18F-DCFPyL (RCP) [25]: 94% and 94.17%
- Free F-18 [25]: 4.68%
- RT 5.0 radioactive impurity [25]: 0.50%
- RT 5.9 radioactive impurity [25]: 0.64%
- 18F-DCFPyL (RCP) (T = 0 hr, control without ascorbic acid, 36% ethanol in saline, 147 mCi/mL at EOS, listed as [^18F]DCFPYL): 94%
- Free F-18 (T = 0.5, 5 mg/mL sodium ascorbate, 20% ethanol, 114.6 mCi/mL at EOS): 0.39%
- 18F-DCFPyL (% RCP) [26]: 100.00%
- Free F-18 [26]: 0.00%
- 18F-DCFPyL (% RCP) [27]: 99.75%
- Free F-18 [27]: 0.25%
- 18F-DCFPyL (% RCP) [28]: 99.72%
- Free F-18 [28]: 0.28%
